{
  "source": "patent US6709873B1",
  "about": "“Method for production of antibodies to specific sites of rapamycin” (Isodiagnostika Inc., priority 1997, dated 2004)",
  "parameters_in_all_cases": "concentration or dose not given beside the values",
  "key": {"[1]": {"tested_on": "Chicken polyclonal antibody (IgY, Rapa-42-DVS-KLH immunogen)", "assay": "Inhibition ELISA of chicken IgY prep", "assay_type": "binding", "details": "Rapa antigen coated ELISA plate", "procedure": "(§1) Inhibition ELISA Protocol\n(§2) 1. Use Falcon® Pro-bind™ inununoplates.\n(§3) 2. Dilute coating antigen to 1 μg/mL in carbonate-bicarbonate buffer.\n(§4) Add 100 μL per well and incubate overnight at 4° C.\n(§5) 3. On the same day prepare inhibiting antigen tubes. Aliquot antibodies into glass test tubes. Prepare appropriate antigen concentration in ethanol and add to aliquoted antibody at 10 μL ethanol solution/250 μL antibody.\n(§6) Vortex tubes and incubate overnight at 4° C.\n(§7) 4. Shake out wells and wash 3× with 200 μL PBS/0.05% TWEEN™ (polyoxyethylene-sorbitol) (v/v) per well.\n(§8) 5. Add 200 μL blocking buffer per well (PBS/2% BSA (w/v)).\n(§9) Incubate 60 min at room temperature.\n(§10) 7. Transfer contents of inhibition tubes to antigen-coated plate, 100 μL per well. Incubate 60 min at 37° C.\n(§11) 9. […] Add 100 μL per well and incubate at 37° C. for 60 min.\n(§12) 11. […] Add 100 μL per well and incubate in the dark at room temperature. Absorbance can be read at 405 nm at approximately 15-min intervals."}, "MoAb R-1-1": {"tested_on": "MoAb R-1-1", "assay": "Inhibition ELISA of MoAb R-1-1", "assay_type": "binding, mouse", "details": "tissue culture supernatant", "procedure": "as §1, §2, §3, §4, §5, §6, §7, §8, §9, §10, §11, §12\n(§13) To further characterize the reactivity of monoclonal antibodies from various clones, inhibition ELISA were performed."}, "MoAb R-1-5": {"tested_on": "MoAb R-1-5", "assay": "Inhibition ELISA of MoAb R-1-5", "assay_type": "binding, mouse", "details": "tissue culture supernatant", "procedure": "as §1, §2, §3, §4, §5, §6, §7, §8, §9, §10, §11, §12, §13"}, "MoAb R-2-2": {"tested_on": "MoAb R-2-2", "assay": "Inhibition ELISA of MoAb R-2-2", "assay_type": "binding, mouse", "details": "tissue culture supernatant", "procedure": "as §1, §2, §3, §4, §5, §6, §7, §8, §9, §10, §11, §12, §13"}, "MoAb R-3-1": {"tested_on": "MoAb R-3-1", "assay": "Inhibition ELISA of MoAb R-3-1", "assay_type": "binding, mouse", "details": "tissue culture supernatant", "procedure": "as §1, §2, §3, §4, §5, §6, §7, §8, §9, §10, §11, §12, §13"}, "[2]": {"tested_on": "Rabbit #1 polyclonal antibody (Rapa-42-DVS-KLH immunogen)", "assay": "Inhibition ELISA of rabbit #1 polyclonal serum", "assay_type": "binding", "details": "Rapa antigen coated ELISA plate", "procedure": "as §1, §2, §3, §4, §5, §6, §7, §8, §9, §10, §11, §12"}},
  "data": [
    {"compound": "C=CCC1C=C(C)CC(C)CC(OC)C2OC(O)(C(=O)C(=O)N3CCCCC3C(=O)OC(C(C)=CC3CCC(O)C(OC)C3)C(C)C(O)CC1=O)C(C)CC2O", "note": "(stereo not drawn) [FK met 1, 13-O-Demethyl]", "values": [
      {"measurement": "Percent inhibition of Chicken polyclonal antibody", "setting": "[1]", "result": 0, "unit": "%"},
      {"measurement": "Percent inhibition of MoAb R-1-1", "setting": "MoAb R-1-1", "result": 46, "unit": "%"},
      {"measurement": "Percent inhibition of MoAb R-1-5", "setting": "MoAb R-1-5", "result": 24, "unit": "%"},
      {"measurement": "Percent inhibition of MoAb R-2-2", "setting": "MoAb R-2-2", "result": 19, "unit": "%"},
      {"measurement": "Percent inhibition of MoAb R-3-1", "setting": "MoAb R-3-1", "result": 0, "unit": "%"},
      {"measurement": "Percent inhibition of Rabbit #1 polyclonal antibody", "setting": "[2]", "result": 0, "unit": "%"}
    ]},
    {"compound": "C=CCC1C=C(C)CC(C)CC(O)C2OC(O)(C(=O)C(=O)N3CCCCC3C(=O)OC(C(C)=CC3CCC(O)C(OC)C3)C(C)C(O)CC1=O)C(C)CC2OC", "note": "(stereo not drawn) [FK met 2, 15-O-Demethyl]", "values": [
      {"measurement": "Percent inhibition of Chicken polyclonal antibody", "setting": "[1]", "result": 0, "unit": "%"},
      {"measurement": "Percent inhibition of MoAb R-1-1", "setting": "MoAb R-1-1", "result": 57, "unit": "%"},
      {"measurement": "Percent inhibition of MoAb R-1-5", "setting": "MoAb R-1-5", "result": 36, "unit": "%"},
      {"measurement": "Percent inhibition of MoAb R-2-2", "setting": "MoAb R-2-2", "result": 16, "unit": "%"},
      {"measurement": "Percent inhibition of MoAb R-3-1", "setting": "MoAb R-3-1", "result": 0, "unit": "%"},
      {"measurement": "Percent inhibition of Rabbit #1 polyclonal antibody", "setting": "[2]", "result": 0, "unit": "%"}
    ]},
    {"compound": "C=CCC1C=C(C)CC(C)CC(OC)C2OC(O)(C(=O)C(=O)N3CCCCC3C(=O)OC(C(C)=CC3CCC(O)C(O)C3)C(C)C(O)CC1=O)C(C)CC2OC", "note": "(stereo not drawn) [FK met 3, 31-O-Demethyl]", "values": [
      {"measurement": "Percent inhibition of Chicken polyclonal antibody", "setting": "[1]", "result": 0, "unit": "%"},
      {"measurement": "Percent inhibition of MoAb R-1-1", "setting": "MoAb R-1-1", "result": 45, "unit": "%"},
      {"measurement": "Percent inhibition of MoAb R-1-5", "setting": "MoAb R-1-5", "result": 26, "unit": "%"},
      {"measurement": "Percent inhibition of MoAb R-2-2", "setting": "MoAb R-2-2", "result": 9, "unit": "%"},
      {"measurement": "Percent inhibition of MoAb R-3-1", "setting": "MoAb R-3-1", "result": 0, "unit": "%"},
      {"measurement": "Percent inhibition of Rabbit #1 polyclonal antibody", "setting": "[2]", "result": 0, "unit": "%"}
    ]},
    {"compound": "C=CCC1C=C(C)CC(C)CC(OC)C2OC(O)(C(=O)C(=O)N3CCCCC3C(=O)OC(C(C)=CC3CCC(O)C(O)C3)C(C)C(O)CC1=O)C(C)CC2O", "note": "(stereo not drawn) [FK met 4, 13,3 1-Didemethyl]", "values": [
      {"measurement": "Percent inhibition of Chicken polyclonal antibody", "setting": "[1]", "result": 13, "unit": "%"},
      {"measurement": "Percent inhibition of MoAb R-1-1", "setting": "MoAb R-1-1", "result": 53, "unit": "%"},
      {"measurement": "Percent inhibition of MoAb R-1-5", "setting": "MoAb R-1-5", "result": 38, "unit": "%"},
      {"measurement": "Percent inhibition of MoAb R-2-2", "setting": "MoAb R-2-2", "result": 13, "unit": "%"},
      {"measurement": "Percent inhibition of MoAb R-3-1", "setting": "MoAb R-3-1", "result": 0, "unit": "%"},
      {"measurement": "Percent inhibition of Rabbit #1 polyclonal antibody", "setting": "[2]", "result": 0, "unit": "%"}
    ]},
    {"compound": "C=CCC1C=C(C)CC(C)CC(O)C2OC(O)(C(=O)C(=O)N3CCCCC3C(=O)OC(C(C)=CC3CCC(O)C(O)C3)C(C)C(O)CC1=O)C(C)CC2OC", "note": "(stereo not drawn) [FK met 5, 15,3 1-O-Didemethyl]", "values": [
      {"measurement": "Percent inhibition of Chicken polyclonal antibody", "setting": "[1]", "result": 0, "unit": "%"},
      {"measurement": "Percent inhibition of MoAb R-1-1", "setting": "MoAb R-1-1", "result": 46, "unit": "%"},
      {"measurement": "Percent inhibition of MoAb R-1-5", "setting": "MoAb R-1-5", "result": 26, "unit": "%"},
      {"measurement": "Percent inhibition of MoAb R-2-2", "setting": "MoAb R-2-2", "result": 13, "unit": "%"},
      {"measurement": "Percent inhibition of MoAb R-3-1", "setting": "MoAb R-3-1", "result": 0, "unit": "%"},
      {"measurement": "Percent inhibition of Rabbit #1 polyclonal antibody", "setting": "[2]", "result": 0, "unit": "%"}
    ]}
  ]
}
